From patent publication US9745321B2, “Fused pyrimidine compound, intermediate, preparation method therefor, and composition and application thereof” (SHANGHAI YINGLI PHARMACEUTICAL CO., LTD, priority 2013, dated 2017)

Key:
PI3Kδ = PI3Kδ (Homo sapiens (Human), UniProt O00329); assay: PI3Kδ enzyme activity inhibition IC50 evaluation assay; format: biochemical; settings: luminescence, 25 μM ATP, 50 μM PIP2, 2 hrs room temperature
Outline: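 Enzyme was preincubated with compound dilutions at 1% DMSO final in 50 mM HEPES pH 7.5, 3 mM MgCl2, 1 mM EGTA, 100 mM NaCl, 0.03% CHAPS, 2 mM DTT. Activity was read by luminescence, and inhibition rate is the mean of two tests.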

PI3Kα = PI3Kα (Homo sapiens (Human), UniProt P42336); assay: PI3Kα enzyme activity inhibition IC50 evaluation assay; format: biochemical; settings: ratio PI3Kα vs PI3Kδ
PI3Kα, sequence (P42336 whole entry): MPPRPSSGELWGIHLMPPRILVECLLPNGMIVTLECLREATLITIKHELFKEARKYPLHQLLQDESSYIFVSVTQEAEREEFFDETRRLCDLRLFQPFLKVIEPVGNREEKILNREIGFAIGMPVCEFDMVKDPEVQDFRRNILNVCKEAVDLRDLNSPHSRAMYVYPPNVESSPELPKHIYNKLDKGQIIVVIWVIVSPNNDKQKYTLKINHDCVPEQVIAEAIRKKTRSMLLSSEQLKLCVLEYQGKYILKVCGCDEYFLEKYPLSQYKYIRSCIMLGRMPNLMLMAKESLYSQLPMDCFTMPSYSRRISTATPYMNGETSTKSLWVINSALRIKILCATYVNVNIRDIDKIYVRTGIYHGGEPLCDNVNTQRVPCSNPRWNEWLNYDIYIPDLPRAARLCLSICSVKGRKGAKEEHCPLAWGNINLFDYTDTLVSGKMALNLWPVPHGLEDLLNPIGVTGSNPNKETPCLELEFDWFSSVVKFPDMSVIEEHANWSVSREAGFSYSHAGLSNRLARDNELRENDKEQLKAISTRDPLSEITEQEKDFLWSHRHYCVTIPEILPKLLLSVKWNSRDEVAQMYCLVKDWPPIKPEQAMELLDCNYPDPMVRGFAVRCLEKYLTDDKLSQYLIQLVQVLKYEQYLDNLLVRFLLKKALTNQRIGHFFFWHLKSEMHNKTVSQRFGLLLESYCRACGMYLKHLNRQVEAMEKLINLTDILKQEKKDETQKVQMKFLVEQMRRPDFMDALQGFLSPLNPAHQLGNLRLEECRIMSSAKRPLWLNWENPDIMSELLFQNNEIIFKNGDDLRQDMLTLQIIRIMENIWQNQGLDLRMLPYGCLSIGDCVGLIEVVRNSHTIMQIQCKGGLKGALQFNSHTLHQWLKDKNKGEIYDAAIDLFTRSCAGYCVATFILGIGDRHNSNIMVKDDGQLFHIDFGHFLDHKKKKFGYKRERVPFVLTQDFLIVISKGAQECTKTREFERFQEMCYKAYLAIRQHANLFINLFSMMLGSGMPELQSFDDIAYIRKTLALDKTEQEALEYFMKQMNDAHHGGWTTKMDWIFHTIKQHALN
PI3Kα, sequence (P27986 whole entry partner): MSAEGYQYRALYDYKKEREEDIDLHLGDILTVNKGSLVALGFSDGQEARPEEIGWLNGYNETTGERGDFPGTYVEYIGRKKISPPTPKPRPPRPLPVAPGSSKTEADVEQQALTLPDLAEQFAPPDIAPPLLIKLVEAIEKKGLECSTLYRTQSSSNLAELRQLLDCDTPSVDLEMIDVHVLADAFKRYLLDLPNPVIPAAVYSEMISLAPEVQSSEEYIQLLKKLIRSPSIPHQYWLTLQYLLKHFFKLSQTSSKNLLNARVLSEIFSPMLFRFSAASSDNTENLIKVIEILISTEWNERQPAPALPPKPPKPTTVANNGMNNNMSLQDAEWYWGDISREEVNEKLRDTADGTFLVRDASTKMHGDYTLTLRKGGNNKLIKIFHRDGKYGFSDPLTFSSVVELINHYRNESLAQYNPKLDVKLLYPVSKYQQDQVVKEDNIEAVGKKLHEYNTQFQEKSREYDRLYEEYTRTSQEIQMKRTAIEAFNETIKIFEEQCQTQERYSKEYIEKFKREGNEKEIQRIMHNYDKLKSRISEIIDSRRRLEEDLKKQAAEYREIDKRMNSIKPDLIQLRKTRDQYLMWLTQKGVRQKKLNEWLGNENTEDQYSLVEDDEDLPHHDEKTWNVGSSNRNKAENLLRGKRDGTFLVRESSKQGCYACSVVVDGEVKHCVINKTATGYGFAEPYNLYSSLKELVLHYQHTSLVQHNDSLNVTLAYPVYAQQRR
Outline: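 Enzymes were preincubated with compound (1% DMSO final) in HEPES pH 7.5 buffer with MgCl2, EGTA, NaCl, CHAPS and 2 mM DTT. Reaction started with 50 μM PIP2 and 25 μM ATP, 1 h at room temperature. Luminescence was read, with ADP-Glo detection reagent added for β and γ; inhibition is the mean of two tests.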

PI3Kβ = PI3Kβ (Homo sapiens (Human), UniProt P42338); assay: PI3Kβ enzyme activity inhibition IC50 evaluation assay; format: biochemical; settings: ratio PI3Kβ vs PI3Kδ
PI3Kβ, sequence (P42338 whole entry): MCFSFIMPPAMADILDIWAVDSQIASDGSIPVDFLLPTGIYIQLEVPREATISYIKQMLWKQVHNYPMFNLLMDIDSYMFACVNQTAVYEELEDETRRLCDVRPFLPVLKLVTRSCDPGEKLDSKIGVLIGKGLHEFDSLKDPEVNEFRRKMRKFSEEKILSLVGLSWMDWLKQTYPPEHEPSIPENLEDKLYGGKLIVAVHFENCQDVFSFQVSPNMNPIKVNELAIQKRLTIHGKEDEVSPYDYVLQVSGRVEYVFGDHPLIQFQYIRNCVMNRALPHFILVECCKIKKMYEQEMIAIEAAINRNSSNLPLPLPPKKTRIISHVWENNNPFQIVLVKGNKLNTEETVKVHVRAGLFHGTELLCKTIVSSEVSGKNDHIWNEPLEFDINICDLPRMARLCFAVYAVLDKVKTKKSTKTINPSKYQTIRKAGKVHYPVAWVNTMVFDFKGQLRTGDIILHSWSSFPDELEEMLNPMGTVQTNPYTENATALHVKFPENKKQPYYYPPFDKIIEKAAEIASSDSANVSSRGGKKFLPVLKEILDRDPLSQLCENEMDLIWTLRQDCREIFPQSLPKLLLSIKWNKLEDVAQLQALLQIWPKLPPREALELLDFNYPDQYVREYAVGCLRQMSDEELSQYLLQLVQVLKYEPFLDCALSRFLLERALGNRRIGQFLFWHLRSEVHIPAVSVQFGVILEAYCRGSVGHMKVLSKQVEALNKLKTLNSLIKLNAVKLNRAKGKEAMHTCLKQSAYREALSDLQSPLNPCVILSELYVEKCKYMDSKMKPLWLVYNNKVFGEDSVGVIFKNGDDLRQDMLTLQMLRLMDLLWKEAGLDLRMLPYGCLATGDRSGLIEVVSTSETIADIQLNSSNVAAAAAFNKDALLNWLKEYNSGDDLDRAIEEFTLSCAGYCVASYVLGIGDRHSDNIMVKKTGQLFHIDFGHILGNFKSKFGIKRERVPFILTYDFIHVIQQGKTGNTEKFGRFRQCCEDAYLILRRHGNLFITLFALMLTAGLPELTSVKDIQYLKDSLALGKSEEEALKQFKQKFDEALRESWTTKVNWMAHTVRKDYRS
PI3Kβ, sequence (P27986 whole entry partner): as the sequence (P27986 whole entry partner) above
Procedure: (§1) PI3Kα, PI3Kδ, PI3Kβ and PI3Kγ Enzyme Activity Inhibition IC50 Evaluation Assay
(§2) • 1. Buffer preparation: 50 mM HEPES, pH 7.5, 3 mM MgCl2, 1 mM EGTA, 100 mM NaCl, 0.03% CHAPS. • 2. Compound was formulated in 100% DMSO in a concentration gradient, and added to a 384-well plate to a final DMSO concentration of 1%. • 3. PI3Kα, PI3Kδ, PI3Kβ and PI3Kγ enzymes were diluted to an optimum concentration with the following buffer: 50 mM HEPES, pH 7.5, 3 mM MgCl2, 1 mM EGTA, 100 mM NaCl, 0.03% CHAPS, 2 mM DTT, and transferred to a 384-well plate and incubated with the compound for a certain time. • 4. Substrate was diluted to an optimum concentration with the following buffer: 50 mM HEPES, pH 7.5, 3 mM MgCl2, 1 mM EGTA, 100 mM NaCl, 0.03% CHAPS, 2 mM DTT, 50 μM PIP2, 25 μM ATP; then added to a 384-well plate to initiate the reaction, and for PI3Kα, PI3Kβ and PI3Kγ at room temperature reacted for 1 hr, for PI3Kδ at room temperature reacted for 2 hrs. For PI3Kβ and PI3Kγ, it was still necessary to further add 10 μL ADP-Glo Detection Reagent, and then equilibrated at room temperature for 30 minutes. • 5. Read Luminescense with FlexStation, and calculate the inhibition rate as the average of two tests.

PI3Kγ = PI3Kγ (Homo sapiens (Human), UniProt P48736); assay: PI3Kγ enzyme activity inhibition IC50 evaluation assay; format: biochemical; settings: ratio PI3Kγ vs PI3Kδ
PI3Kγ, sequence (P48736 whole entry): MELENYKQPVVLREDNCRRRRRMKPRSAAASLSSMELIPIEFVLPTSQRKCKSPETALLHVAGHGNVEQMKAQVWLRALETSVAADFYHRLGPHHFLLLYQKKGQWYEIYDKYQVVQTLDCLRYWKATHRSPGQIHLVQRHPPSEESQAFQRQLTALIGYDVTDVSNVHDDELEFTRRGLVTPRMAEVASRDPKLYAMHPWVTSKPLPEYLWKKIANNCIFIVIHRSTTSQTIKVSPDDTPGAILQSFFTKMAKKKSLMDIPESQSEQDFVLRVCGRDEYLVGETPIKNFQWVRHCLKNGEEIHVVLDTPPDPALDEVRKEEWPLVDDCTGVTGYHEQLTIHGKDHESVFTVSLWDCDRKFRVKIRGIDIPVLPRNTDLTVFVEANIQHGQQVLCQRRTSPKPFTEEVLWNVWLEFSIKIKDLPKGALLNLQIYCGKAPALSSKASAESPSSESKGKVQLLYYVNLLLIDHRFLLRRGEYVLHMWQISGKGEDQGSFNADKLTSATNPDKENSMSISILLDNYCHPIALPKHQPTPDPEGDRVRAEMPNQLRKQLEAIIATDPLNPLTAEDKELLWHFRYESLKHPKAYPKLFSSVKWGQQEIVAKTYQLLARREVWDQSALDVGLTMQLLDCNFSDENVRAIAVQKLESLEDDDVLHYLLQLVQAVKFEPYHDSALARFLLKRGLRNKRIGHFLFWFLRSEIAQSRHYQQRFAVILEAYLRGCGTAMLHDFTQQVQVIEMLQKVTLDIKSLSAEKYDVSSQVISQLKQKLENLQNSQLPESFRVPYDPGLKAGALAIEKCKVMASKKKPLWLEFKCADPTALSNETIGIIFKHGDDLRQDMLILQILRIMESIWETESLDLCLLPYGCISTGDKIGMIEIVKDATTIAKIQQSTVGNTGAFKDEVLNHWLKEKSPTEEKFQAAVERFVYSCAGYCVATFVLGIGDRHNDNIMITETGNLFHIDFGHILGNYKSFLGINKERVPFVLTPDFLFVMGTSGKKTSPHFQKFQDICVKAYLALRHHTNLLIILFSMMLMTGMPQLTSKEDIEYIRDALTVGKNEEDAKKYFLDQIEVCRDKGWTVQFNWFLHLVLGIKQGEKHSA
Procedure: as §1, §2

Raji cells = assay: Inhibition of TNF-α generation of human Raji cell induced by human IgM; format: cell-based; settings: 10 μg/ml IgM stimulation, 24 hrs, ELISA
Procedure: Screening Test for a Drug on Inhibiting TNF-α Generation of Human Raji Cell Induced by Human IgM
• 1. Raji cell lines (source of human Burkitt's lymphoma) were employed. • 2. 1×10^5/well Raji cells were plated onto a 96-well cell culture plate. • 3. Compounds to be screened were diluted to the corresponding test concentrations and added into the cell culture system 30 minutes before IgM stimulation. • 4. 10 μg/ml IgM monoclonal antibody was added into the cell culture system to stimulate the cells generating TNF-α. • 5. 24 hrs later, the amount of TNF-α generated by the cell system was measured by ELISA method. • 6.

PI3Kδ, sequence (O00329 whole entry): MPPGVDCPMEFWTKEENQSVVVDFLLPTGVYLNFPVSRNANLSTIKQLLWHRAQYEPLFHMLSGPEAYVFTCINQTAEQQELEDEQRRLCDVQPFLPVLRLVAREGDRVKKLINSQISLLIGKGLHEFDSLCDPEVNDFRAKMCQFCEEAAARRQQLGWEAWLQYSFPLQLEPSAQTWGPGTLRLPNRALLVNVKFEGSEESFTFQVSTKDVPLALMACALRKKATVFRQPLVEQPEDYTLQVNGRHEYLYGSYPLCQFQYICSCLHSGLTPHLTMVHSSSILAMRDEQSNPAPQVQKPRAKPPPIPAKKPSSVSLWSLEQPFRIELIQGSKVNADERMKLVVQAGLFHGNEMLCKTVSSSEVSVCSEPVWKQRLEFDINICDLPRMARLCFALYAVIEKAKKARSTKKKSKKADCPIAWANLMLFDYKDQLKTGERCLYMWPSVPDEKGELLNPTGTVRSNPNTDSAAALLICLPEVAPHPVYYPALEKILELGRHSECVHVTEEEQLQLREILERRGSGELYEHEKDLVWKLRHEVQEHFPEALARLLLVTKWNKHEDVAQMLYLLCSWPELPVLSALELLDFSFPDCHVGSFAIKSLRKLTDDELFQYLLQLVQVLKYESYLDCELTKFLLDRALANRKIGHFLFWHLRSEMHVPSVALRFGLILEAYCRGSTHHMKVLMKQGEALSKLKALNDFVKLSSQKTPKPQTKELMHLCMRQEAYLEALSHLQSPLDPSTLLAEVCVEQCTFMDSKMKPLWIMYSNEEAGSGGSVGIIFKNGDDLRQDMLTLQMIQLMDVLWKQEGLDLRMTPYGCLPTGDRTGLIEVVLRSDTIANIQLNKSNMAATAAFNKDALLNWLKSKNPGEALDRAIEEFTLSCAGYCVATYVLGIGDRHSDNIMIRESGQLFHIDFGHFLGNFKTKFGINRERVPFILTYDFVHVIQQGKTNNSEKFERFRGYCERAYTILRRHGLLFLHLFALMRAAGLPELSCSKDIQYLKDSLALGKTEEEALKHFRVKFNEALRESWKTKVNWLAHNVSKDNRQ
PI3Kδ, sequence (P27986 whole entry partner): as the sequence (P27986 whole entry partner) above

| IC50 (PI3Kδ) [nM] | α/δ selectivity (PI3Kα) | β/δ selectivity (PI3Kβ) | γ/δ selectivity (PI3Kγ) | IC50 (Raji cells) [nM] | Compound |
| --- | --- | --- | --- | --- | --- |
| 7.7 | 302 | 18 | >1298 | 10.6 | COc1ncc(-c2nc(N3CCOCC3)nc3c(CN4CCC(C(C)(C)OC)CC4)c(C)sc23)cc1NS(C)(=O)=O [Compound 78] |
| 11.9 | 257 | 24 | >840 | 6.7 | COc1ncc(-c2nc(N3CCOCC3)nc3c(CN4CCC(OC)CC4)c(C)sc23)cc1NS(C)(=O)=O [Compound 83] |
| 8.6 | 401 | 69 | >1162 | 39.1 | COc1ncc(-c2nc(N3CCOCC3)nc3c(CN4CCC(C(C)(C)F)CC4)c(C)sc23)cc1NS(C)(=O)=O [Compound 85] |
| 12.5 | 204 | 45 | 498 | 41.6 | COc1ncc(-c2nc(N3CCOCC3)nc3c(CN4CCN(CC(F)(F)F)CC4)c(C)sc23)cc1NS(C)(=O)=O [Compound 87] |
| 12 | 390 | 29 | 482 | 32.6 | COc1ncc(-c2nc(N3CCOCC3)nc3c(CN4CCC(C)CC4)c(C)sc23)cc1NS(C)(=O)=O [Compound 101] |
| 9.3 | 39 | 15 | 221 | 8.6 | COc1ncc(-c2nc(N3CCOCC3)nc3c(CN4CCC(N5CCCCC5=O)CC4)c(C)sc23)cc1NS(C)(=O)=O [Compound 150] |

Second part, the molecule before the results:

| Compound | IC50 (PI3Kδ) [nM] | α/δ selectivity (PI3Kα) | β/δ selectivity (PI3Kβ) | γ/δ selectivity (PI3Kγ) | IC50 (Raji cells) [nM] |
| --- | --- | --- | --- | --- | --- |
| COc1ncc(-c2nc(N3CCOCC3)nc3c(CN4CCN(C)CC4)c(C)sc23)cc1NS(C)(=O)=O [Compound 65] | 17.5 | 174 | 94 | >571 | 15.4 |
| COc1ncc(-c2nc(N3CCOCC3)nc3c(CN4CCC(C(C)C)CC4)c(C)sc23)cc1NS(C)(=O)=O [Compound 88] | 5.8 | 548 | 73 | 1202 | 6.1 |
| COc1ncc(-c2nc(N3CCOCC3)nc3c(CN4CCC(N(C)C(C)C)CC4)c(C)sc23)cc1NS(C)(=O)=O [Compound 95] | 6.5 | 157 | 167 | 532 | 1.1 |
| COc1ncc(-c2nc(N3CCOCC3)nc3c(CN4CCC(O)CC4)c(C)sc23)cc1NS(C)(=O)=O [Compound 108] | 13 | 78 | 6 | 262 |  |
| COc1ncc(-c2nc(N3CCOCC3)nc3c(CN4CCN(C(C)(C)C)CC4)c(C)sc23)cc1NS(=O)(=O)C1CC1 [Compound 109] | 3.9 | 251 | 723 | 1296 |  |
| CCN(CC)C1CCN(Cc2c(C)sc3c(-c4cnc(OC)c(NS(C)(=O)=O)c4)nc(N4CCOCC4)nc23)CC1 [Compound 110] | 4.1 | 203 | 275 | 1112 | 3.3 |
| COc1ncc(-c2nc(N3CCOCC3)nc3c(CN4CCC(N5CCCC5)CC4)c(C)sc23)cc1NS(C)(=O)=O [Compound 112] | 7.6 | 108 | 126 | 611 | 1.1 |
| COc1ncc(-c2nc(N3CCOCC3)nc3c(CN4CCC(N5CCCCC5)CC4)c(C)sc23)cc1NS(C)(=O)=O [Compound 147] | 4.6 | 225 | 140 | 567 | 3.3 |
| COc1ncc(-c2nc(N3CCOCC3)nc3c(CN4CCC(N5CCC5)CC4)c(C)sc23)cc1NS(C)(=O)=O [Compound 148] | 4.7 | 280 | 110 | 587 | 7 |
| COc1ncc(-c2nc(N3CCOCC3)nc3c(OC4CCC(N5CCCCC5)CC4)c(C)sc23)cc1NS(C)(=O)=O (stereo not drawn) [Compound 153] | 11 | 42 | 418 | >909 | 0.6 |
